Results on one compound are retold here after paper PMC5765548 (Journal of medicinal chemistry, 2017).

In general, IC50 refers to the point on the concentration scale where inhibition reaches its midpoint.

Assay [1] deals with T1, ALDH1A2 (Homo sapiens, UniProt O94788).
T1 sequence (O94788 1-518): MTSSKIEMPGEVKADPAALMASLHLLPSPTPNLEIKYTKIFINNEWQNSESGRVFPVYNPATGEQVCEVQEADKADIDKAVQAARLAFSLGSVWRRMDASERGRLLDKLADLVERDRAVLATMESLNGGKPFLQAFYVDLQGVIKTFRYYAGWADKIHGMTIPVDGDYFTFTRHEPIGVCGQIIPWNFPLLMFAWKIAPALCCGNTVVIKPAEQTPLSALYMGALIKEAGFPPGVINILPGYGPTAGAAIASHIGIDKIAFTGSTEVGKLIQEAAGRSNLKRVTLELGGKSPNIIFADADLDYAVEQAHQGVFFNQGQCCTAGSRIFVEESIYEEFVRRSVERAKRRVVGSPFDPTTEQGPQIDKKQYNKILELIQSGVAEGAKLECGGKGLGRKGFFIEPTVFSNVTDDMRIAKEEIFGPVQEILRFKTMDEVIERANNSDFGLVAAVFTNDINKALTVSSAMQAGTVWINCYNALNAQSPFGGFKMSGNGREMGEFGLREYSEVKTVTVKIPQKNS
As to conditions: read-out: IC50 ALDH1A2; 100 μM propionaldehyde, 200 μM NAD+, 1% DMSO, pH 7.5, 25 °C.

In assay [2] the target is T2, ALDH2 (Homo sapiens, UniProt P05091).
T2 sequence (P05091 18-517): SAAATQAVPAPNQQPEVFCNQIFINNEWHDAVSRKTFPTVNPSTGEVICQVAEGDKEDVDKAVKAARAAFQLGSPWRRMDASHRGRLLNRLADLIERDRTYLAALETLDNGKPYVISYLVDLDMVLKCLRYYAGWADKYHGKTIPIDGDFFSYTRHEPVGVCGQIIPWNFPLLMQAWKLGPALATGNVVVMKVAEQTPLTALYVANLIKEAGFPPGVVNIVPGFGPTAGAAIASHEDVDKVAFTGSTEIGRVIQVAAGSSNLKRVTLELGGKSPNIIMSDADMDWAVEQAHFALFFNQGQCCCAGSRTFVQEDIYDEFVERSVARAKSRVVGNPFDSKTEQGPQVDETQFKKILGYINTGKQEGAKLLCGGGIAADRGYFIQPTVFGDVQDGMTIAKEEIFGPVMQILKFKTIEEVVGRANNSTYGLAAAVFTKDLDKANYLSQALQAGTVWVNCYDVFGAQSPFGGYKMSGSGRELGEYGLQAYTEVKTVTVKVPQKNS
As to conditions: 1 mM propionaldehyde.

The target in assay [3] is T3, ALDH1L1 (rat) (Rattus norvegicus, UniProt P28037).
T3 sequence (P28037 1-902): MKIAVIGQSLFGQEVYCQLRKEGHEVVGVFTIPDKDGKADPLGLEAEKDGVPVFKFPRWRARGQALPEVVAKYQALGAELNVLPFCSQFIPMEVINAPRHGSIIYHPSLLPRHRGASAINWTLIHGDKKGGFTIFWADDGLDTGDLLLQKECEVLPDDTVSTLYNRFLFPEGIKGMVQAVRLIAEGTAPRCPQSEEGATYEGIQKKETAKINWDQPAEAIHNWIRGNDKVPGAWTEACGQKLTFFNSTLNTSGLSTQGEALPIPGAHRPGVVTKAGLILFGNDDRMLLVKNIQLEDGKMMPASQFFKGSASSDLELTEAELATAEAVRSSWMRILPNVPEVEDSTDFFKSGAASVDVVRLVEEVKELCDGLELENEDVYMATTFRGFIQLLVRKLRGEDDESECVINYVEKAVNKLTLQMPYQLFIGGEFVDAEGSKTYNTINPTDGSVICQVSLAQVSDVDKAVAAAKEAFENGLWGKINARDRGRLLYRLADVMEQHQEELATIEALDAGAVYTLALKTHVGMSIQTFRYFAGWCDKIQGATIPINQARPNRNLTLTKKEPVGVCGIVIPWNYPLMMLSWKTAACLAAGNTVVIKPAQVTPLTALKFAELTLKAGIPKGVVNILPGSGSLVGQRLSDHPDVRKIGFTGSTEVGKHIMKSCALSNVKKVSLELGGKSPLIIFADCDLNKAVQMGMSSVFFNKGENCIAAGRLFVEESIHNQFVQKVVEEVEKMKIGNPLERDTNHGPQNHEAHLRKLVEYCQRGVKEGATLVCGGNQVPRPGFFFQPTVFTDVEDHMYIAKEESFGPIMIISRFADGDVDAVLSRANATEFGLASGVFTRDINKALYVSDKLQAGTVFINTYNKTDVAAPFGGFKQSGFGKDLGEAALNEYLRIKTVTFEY
Kind of assay: ALDH1L1 dehydrogenase activity, NADPH formation at 340 nm. Type of assay: biochemical. As to conditions: read-out: IC50 ALDH1L1 (rat); 4 mM propionaldehyde, 500 μM NADP+.

The target of assay [4] is T4, ALDH1A3 (Homo sapiens, UniProt P47895).
T4 sequence (P47895 1-512): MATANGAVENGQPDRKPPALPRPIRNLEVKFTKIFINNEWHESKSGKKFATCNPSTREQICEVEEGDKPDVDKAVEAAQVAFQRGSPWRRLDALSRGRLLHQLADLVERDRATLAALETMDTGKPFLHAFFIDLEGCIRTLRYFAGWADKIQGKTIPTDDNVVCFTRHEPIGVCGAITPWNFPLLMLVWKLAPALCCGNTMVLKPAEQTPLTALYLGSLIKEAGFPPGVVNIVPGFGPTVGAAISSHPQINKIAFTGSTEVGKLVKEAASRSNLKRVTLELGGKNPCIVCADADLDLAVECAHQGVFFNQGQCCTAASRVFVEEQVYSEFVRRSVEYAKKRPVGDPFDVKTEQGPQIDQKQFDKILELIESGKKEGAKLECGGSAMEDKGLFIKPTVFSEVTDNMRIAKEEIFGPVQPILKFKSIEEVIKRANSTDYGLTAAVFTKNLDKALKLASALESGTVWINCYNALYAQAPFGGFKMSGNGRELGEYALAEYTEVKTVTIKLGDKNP
To be noted: read-out: IC50 ALDH1A3; 100 μM propionaldehyde, 200 μM NAD+, 1% DMSO, pH 7.5, 25 °C.

As for `COC(=O)C(C)Oc1ccc2c(C)cc(=O)oc2c1` (stereo not shown) [Compound 4], the half-maximal inhibitory concentration (IC50) in assay [1], in assay [3] and in assay [4] was more than 100 µM throughout. Further, the “Mode of inhibition of ALDH2 versus varied NAD+” value in assay [2] was “competitive”.
